Results taken from ChEMBL document CHEMBL5523718, “Design, synthesis, molecular modeling, in vitro and in vivo biological evaluation of potent anthranilamide derivatives as dual P-glycoprotein and CYP3A4 inhibitors” (Eur J Med Chem, 2024).
“And” between values parts separate entries of the source, which are not always exact repeats. Equal entries are not always repeated.

Experiments:
Cytochrome P450 3A4 [1] = target: T1, Cytochrome P450 3A4 (Homo sapiens, UniProt P08684); experiment: Inhibition of CYP3A4 in human liver using luciferin-IPA as substrate microsome preincubated with compound for 10 mins followed by NADPH addition and measured after 5 mins; assay type: ADME, microsomes
Cytochrome P450 3A4 [2] = target: T1, Cytochrome P450 3A4; experiment: Inhibition of CYP3A4 in human Hepatocyte using Luciferin-IPA as substrate; assay type: ADME, cell-based
MES-SA/Dx5 = experiment: Cytotoxicity against human MES-SA/Dx5 cells at 1.28 uM incubated for 3 days by MTT assay relative to control; assay type: functional; conditions: time 3 day
[3] = target: ATP-dependent translocase ABCB1 (Homo sapiens, UniProt P08183); experiment: Inhibition of P-gp in human MES-SA/Dx5 cells; assay type: cell-based
[4] = Apparent permeability of compound across apical to basolateral side in human Caco-2 cells; assay type: ADME, cell-based
[5] = Apparent permeability across apical to basolateral side in human Caco-2 cells assessed as drug recovery; assay type: ADME, cell-based; conditions: read-out: Drug recovery
[6] = Apparent permeability of compound across basolateral to apical side in human Caco-2 cells; assay type: ADME, cell-based
[7] = Apparent permeability across basolateral to apical side in human Caco-2 cells assessed as drug recovery; assay type: ADME, cell-based; conditions: read-out: Drug recovery
[8] = Efflux ratio of apparent permeability across basolateral to apical side over apical to basolateral side in human Caco-2 cells; assay type: ADME, cell-based
[9] = Equilibrium solubility of compound in PBS at pH 7.4; assay type: physicochemical; conditions: buffer

T1 sequence (P08684 whole entry): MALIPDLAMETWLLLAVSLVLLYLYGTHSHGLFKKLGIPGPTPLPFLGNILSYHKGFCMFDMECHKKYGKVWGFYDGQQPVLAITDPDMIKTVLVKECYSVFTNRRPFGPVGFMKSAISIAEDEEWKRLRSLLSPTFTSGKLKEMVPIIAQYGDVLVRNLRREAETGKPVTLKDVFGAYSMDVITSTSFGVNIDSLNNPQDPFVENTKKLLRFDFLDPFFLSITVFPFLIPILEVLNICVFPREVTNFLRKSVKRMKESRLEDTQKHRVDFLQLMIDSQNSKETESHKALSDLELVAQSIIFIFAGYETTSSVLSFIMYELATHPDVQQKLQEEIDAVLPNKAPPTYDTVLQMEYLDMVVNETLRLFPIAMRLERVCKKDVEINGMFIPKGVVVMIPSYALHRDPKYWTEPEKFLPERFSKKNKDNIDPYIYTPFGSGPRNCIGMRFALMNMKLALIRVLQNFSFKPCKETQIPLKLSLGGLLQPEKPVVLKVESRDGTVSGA
Sequence of ATP-dependent translocase ABCB1 (P08183 whole entry): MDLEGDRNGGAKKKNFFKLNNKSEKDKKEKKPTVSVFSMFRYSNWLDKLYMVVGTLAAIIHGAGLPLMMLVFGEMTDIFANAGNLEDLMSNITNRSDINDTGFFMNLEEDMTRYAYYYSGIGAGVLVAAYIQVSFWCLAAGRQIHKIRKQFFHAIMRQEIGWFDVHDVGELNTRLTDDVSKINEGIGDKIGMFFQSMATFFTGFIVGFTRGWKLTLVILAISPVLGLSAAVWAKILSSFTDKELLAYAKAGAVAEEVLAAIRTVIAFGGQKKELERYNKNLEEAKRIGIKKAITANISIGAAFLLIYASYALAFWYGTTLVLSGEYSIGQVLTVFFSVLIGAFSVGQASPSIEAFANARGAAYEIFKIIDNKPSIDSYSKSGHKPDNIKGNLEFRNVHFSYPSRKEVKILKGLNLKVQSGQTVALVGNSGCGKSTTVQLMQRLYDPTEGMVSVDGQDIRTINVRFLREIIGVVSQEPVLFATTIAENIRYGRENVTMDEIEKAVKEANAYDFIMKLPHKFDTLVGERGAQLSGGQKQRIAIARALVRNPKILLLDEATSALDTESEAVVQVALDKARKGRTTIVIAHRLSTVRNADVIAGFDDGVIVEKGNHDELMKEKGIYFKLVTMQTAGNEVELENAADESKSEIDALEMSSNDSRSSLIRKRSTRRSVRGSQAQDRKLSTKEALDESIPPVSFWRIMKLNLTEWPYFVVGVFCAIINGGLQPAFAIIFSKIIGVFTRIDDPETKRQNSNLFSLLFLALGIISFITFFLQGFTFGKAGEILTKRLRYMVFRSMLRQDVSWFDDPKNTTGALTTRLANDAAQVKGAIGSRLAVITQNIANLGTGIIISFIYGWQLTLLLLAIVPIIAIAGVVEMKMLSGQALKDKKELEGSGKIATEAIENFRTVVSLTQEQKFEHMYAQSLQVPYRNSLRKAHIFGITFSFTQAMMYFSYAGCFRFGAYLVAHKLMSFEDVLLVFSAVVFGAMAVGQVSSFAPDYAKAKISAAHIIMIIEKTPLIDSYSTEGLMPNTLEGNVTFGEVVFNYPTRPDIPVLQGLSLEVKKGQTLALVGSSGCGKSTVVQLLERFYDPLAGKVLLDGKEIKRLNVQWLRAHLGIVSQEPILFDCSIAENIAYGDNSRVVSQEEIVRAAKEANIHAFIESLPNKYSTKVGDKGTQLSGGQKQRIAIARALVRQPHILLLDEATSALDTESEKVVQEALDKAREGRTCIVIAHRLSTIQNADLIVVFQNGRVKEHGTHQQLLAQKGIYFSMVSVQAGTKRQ

| SMILES | IC50 (Cytochrome P450 3A4 [1]) | IC50 (Cytochrome P450 3A4 [2]) | Activity (MES-SA/Dx5) | EC50 [3] | Papp A→B [4] | recovery [5] | Papp B→A [6] | recovery [7] | efflux ratio [8] | Papp [6] | Ratio [8] | solubility [9] |
| --- | --- | --- | --- | --- | --- | --- | --- | --- | --- | --- | --- | --- |
| COc1cc(NC(=O)c2cnc3ccccc3c2)c(C(=O)Nc2ccc(C3CCN(Cc4ccc5c(cnn5C)c4)CC3)cc2)cc1OC | 3820 nM | 9000 nM | 3% | 26 nM |  |  |  |  |  |  |  |  |
| COc1cc(NC(=O)c2cc(=O)c3ccccc3o2)c(C(=O)Nc2ccc(N3CCN(Cc4cccc(-c5ccncc5)c4)CC3)cc2)cc1OC | 449 nM | 1640 nM | 0% | 121 nM |  |  |  |  |  |  |  |  |
| COc1ccc(CN2CCC(c3ccc(NC(=O)c4cc(OC)c(OC)cc4NC(=O)c4cnc5ccccc5c4)cc3)CC2)cc1OC | > 9000 nM |  | 3% | 43 nM |  |  |  |  |  |  |  |  |
| C[C@H]1O[C@@H](O[C@H]2[C@@H](O)C[C@H](O[C@H]3[C@@H](O)C[C@H](O[C@H]4CC[C@@]5(C)[C@H](CC[C@@H]6[C@@H]5C[C@@H](O)[C@]5(C)[C@@H](C7=CC(=O)OC7)CC[C@]65O)C4)O[C@@H]3C)O[C@@H]2C)C[C@H](O)[C@@H]1O [DIGOXIN] |  |  |  |  | 0.98 ×10⁻⁶ cm/s | 56% | 12.1 ×10⁻⁶ cm/s | 68% | 12.2 |  |  |  |
| COc1cc(NC(=O)c2cc(=O)c3ccccc3o2)c(C(=O)Nc2ccc(C3CCN(Cc4cccc(-n5cncn5)c4)CC3)cc2)cc1OC | 298 nM | 1330 nM | 0% | 221 nM |  |  |  |  |  |  |  |  |
| COc1cc(NC(=O)c2cnc3ccccc3c2)c(C(=O)Nc2ccc(N3CCN(Cc4ccc5c(cnn5C)c4)CC3)cc2)cc1OC | 1880 nM | 6240 nM | 6% | 19 nM |  |  |  |  |  |  |  |  |
| COc1cc(NC(=O)c2cnc3ccccc3c2)c(C(=O)Nc2ccc(N3CCN(Cc4ccc5c(c4)OCO5)CC3)cc2)cc1OC | 2110 nM | 5530 nM | 3% | 22 nM |  | 75% |  | 75% |  | 31.7 10^-6 cm/s | 14 |  |
| COc1ccc(CN2CCC(c3ccc(NC(=O)c4cc(OC)c(OC)cc4NC(=O)c4cc(=O)c5ccccc5o4)cc3)CC2)cc1OC | > 9000 nM |  | 0% | 40 nM |  |  |  |  |  |  |  |  |
| COc1cc(NC(=O)c2cc(=O)c3ccccc3o2)c(C(=O)Nc2ccc(C3CCN(Cc4ccc5c(cnn5C)c4)CC3)cc2)cc1OC | 1180 nM | 5970 nM | 1% | 30 nM |  |  |  |  |  |  |  |  |
| COc1ccc(CN2CCN(c3ccc(NC(=O)c4ccccc4NC(=O)c4cc(=O)c5ccccc5o4)cc3)CC2)cc1OC | > 9000 nM |  | 0% | 422 nM |  |  |  |  |  |  |  |  |
| COc1cc(NC(=O)c2cnc3ccccc3c2)c(C(=O)Nc2ccc(C3CCN(Cc4ccc5c(c4)OCO5)CC3)cc2)cc1OC | 3210 nM | 9000 nM | 1% | 39 nM |  |  |  |  |  |  |  |  |
| COc1cc(NC(=O)c2cc(=O)c3ccccc3o2)c(C(=O)Nc2ccc(N3CCN(Cc4cccc(-n5cncn5)c4)CC3)cc2)cc1OC | 372 nM | 475 nM | 1% | 328 nM |  |  |  |  |  |  |  |  |
| COc1cc(NC(=O)c2cc(=O)c3ccccc3o2)c(C(=O)Nc2ccc(C3CCN(Cc4cccc(-c5cccnc5)c4)CC3)cc2)cc1OC | 230 nM and 255 nM | 1180 nM and 492 nM | 0% | 65 nM and 232 nM |  |  |  |  |  |  |  |  |
| COc1cc(NC(=O)c2cnc3ccccc3c2)c(C(=O)Nc2ccc(C3CCN(Cc4cccc(-n5cncn5)c4)CC3)cc2)cc1OC | 654 nM | 1760 nM | 1% | 156 nM |  |  |  |  |  |  |  |  |
| COc1cc(NC(=O)c2cc(=O)c3ccccc3o2)c(C(=O)Nc2ccc(N3CCN(Cc4cccc(-c5cccnc5)c4)CC3)cc2)cc1OC | 339 nM | 609 nM | 0% | 43 nM | 0.06 ×10⁻⁶ cm/s | 62% | < 0.08 ×10⁻⁶ cm/s | 86% |  |  |  | Not Determined(Insoluble) |
